Converted amounts (≈) assume the structure as drawn.
Tested on: S. pneumoniae ATCC 49619
Experiment: Minimal inhibitory concentration (MIC) by microdilution method (CLSI M7-A7)
Assay type: cell-based, Streptococcus pneumoniae
Settings: for MIC: Streptococcus pneumoniae, ATCC49619, cation-adjusted Mueller-Hinton Broth supplemented with 3% (v/v) lysed horse blood; for MIC for S. pneumoniae ATCC 49619: cation-adjusted Mueller-Hinton Broth supplemented with 3% (v/v) lysed horse blood
Method in brief: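 For S. pneumoniae, cation-adjusted Mueller-Hinton broth carried 3% (v/v) lysed horse blood; MICs (mg/l) were read by CLSI M7-A7 microdilution.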

Molecule | MIC [µg/mL] | MIC for S. pneumoniae ATCC 49619 [µg/mL]
CCNC(=O)Nc1cc2c(F)ccc(-c3cccnc3)c2cn1 [Example 215, 1-ethyl-3-(5-fluoro-8-pyridin-3-yl-isoquinolin-3-yl)-urea] | 16 (≈ 51.6 µM) | 
CCNC(=O)Nc1cc2c(CNC)ccc(Nc3cccc(OC)n3)c2cn1 [Example 271, 1-ethyl-3-{8-[(6-methoxy-pyridin)-2-ylamino]-5-[(methylamino)methyl]-isoquinolin-3-yl}-urea] |  | 4
CCNC(=O)Nc1cc2c(F)ccc(-c3ccc(C(=O)O)cc3)c2cn1 [Example 74, 4-[3-(3-ethyl-ureido)-5-fluoro-isoquinolin-8-yl]-benzoic acid] | 2 (≈ 5.66 µM) | 
CCNC(=O)Nc1cc2c(-c3cccnc3)ccc(Oc3cccnc3)c2cn1 [Example 223, 1-ethyl-3-[5-pyridin-3-yl-8-(pyridin-3-yloxy)-isoquinolin-3-yl]-urea] | 0.5 (≈ 1.3 µM) | 
CCNC(=O)Nc1cc2cccc(Nc3ccc(OC)c(C(=O)N(C)C)c3)c2cn1 [Example 244, 5-[3-(3-ethyl-ureido)-isoquinolin-8-ylamino]-2-methoxy-N,N-dimethyl-benzamide] | 2 (≈ 4.91 µM) | 
CCNC(=O)Nc1cc2cc(NC(=O)c3cncs3)cc(C)c2cn1 [Example 62, thiazole-5-carboxylic acid [3-(3-ethyl-ureido)-8-methyl-isoquinolin-6-yl]-amide] | 0.25 (≈ 0.703 µM) | 
CCNC(=O)Nc1cc2cc(NC(=O)c3ccc(C(=O)OC)cc3)cc(C)c2cn1 [Example 193, N-[3-(3-ethyl-ureido)-8-methyl-isoquinolin-6-yl]terephthalamic acid methyl ester] | 1 (≈ 2.46 µM) | 
CCNC(=O)Nc1cc2cccc(Nc3cccc(C(=O)NCc4ccccc4)c3)c2cn1.Cl [Example 201, N-benzyl-3-[3-(3-ethyl-ureido)-isoquinolin-8-ylamino]-benzamide hydrochloride] | 2 | 
CCNC(=O)Nc1cc2cc(NCc3ccncc3)cc(C)c2cn1.Cl [Example 122, 1-ethyl-3-{8-methyl-6-[(pyridin-4-ylmethyl)-amino]-isoquinolin-3-yl}-urea hydrochloride] | 8 | 
CCNC(=O)Nc1cc2cccc(Nc3ccc(NC(C)=O)cc3)c2cn1 [Example 173, N-{4-[3-(3-ethyl-ureido)-isoquinolin-8-ylamino]-phenyl}-acetamide] | 2 (≈ 5.5 µM) | 
CCNC(=O)Nc1cc2cc(-c3cccc(NC(C)=O)c3)cc(C)c2cn1 [Example 37, N-{3-[3-(3-ethyl-ureido)-8-methyl-isoquinolin-6-yl]-phenyl}-acetamide] | 1 (≈ 2.76 µM) | 
CCNC(=O)Nc1cc2c(-c3ccncc3)ccc(Nc3cccc(C(=O)OC)c3)c2cn1 [Example 220, 3-[3-(3-ethyl-ureido)-5-pyridin-4-yl-isoquinolin-8-ylamino]-benzoic acid methyl ester] | 16 (≈ 36.2 µM) | 
CCNC(=O)Nc1cc2cccc(NC(=O)c3cnn[nH]3)c2cn1.Cl [Example 183, 3H-[1,2,3]triazole-4-carboxylic acid [3-(3-ethyl-ureido)-isoquinolin-8-yl]-amide hydrochloride] | 4 | 
CCNC(=O)Nc1cc2c(Nc3cccnc3)ccc(Nc3cccnc3)c2cn1 [Example 268, 1-[5,8-bis-(pyridin-3-ylamino)-isoquinolin-3-yl]-3-ethyl-urea] | 4 (≈ 10 µM) | 
CCNC(=O)Nc1cc2c(-c3ccc(C(=O)O)cc3)cccc2cn1 [Example 124, 4-[3-(3-ethyl-ureido)-isoquinolin-5-yl]-benzoic acid] | 4 (≈ 11.9 µM) | 
1-[8-(2,4-dimethyl-imidazol-1-ylmethyl)-isoquinolin-3-yl]-3-ethyl-urea and 1-[8-(2,5-dimethyl-imidazol-1-ylmethyl)-isoquinolin-3-yl]-3-ethyl-urea [Example 296] |  | 8
CCNC(=O)Nc1cc2cccc(Nc3cncnc3)c2cn1 [Example 149, 1-ethyl-3-[8-(pyrimidin-5-ylamino)-isoquinolin-3-yl]-urea] | 2 (≈ 6.49 µM) | 

Molecule | MIC [µg/mL] | MIC for S. pneumoniae ATCC 49619 [µg/mL]
CCNC(=O)Nc1cc2c(-c3ccnc(N)c3)ccc(Nc3cccnc3)c2cn1 [Example 233, 1-[5-(2-amino-pyridin-4-yl)-8-(pyridin-3-ylamino)-isoquinolin-3-yl]-3-ethyl-urea] | 0.5 (≈ 1.25 µM) | 
CCNC(=O)Nc1cc2cc(NC(=O)COC)cc(C)c2cn1 [Example 195, N-[3-(3-ethyl-ureido)-8-methyl-isoquinolin-6-yl]-2-methoxy-acetamide] | 4 (≈ 12.6 µM) | 
CCNC(=O)Nc1cc2c(F)c(-c3cccc(NC(C)=O)c3)cc(-c3cccnc3)c2cn1 [Example 113, N-{3-[3-(3-ethyl-ureido)-5-fluoro-8-pyridin-3-yl-isoquinolin-6-yl]-phenyl}-acetamide] | 1 (≈ 2.25 µM) | 
CCNC(=O)Nc1cc2cc(NC(=O)c3ccncc3)cc(C)c2cn1 [Example 116, N-[3-(3-ethyl-ureido)-8-methyl-isoquinolin-6-yl]-isonicotinamide] | 0.125 (≈ 0.358 µM) | 
CCNC(=O)Nc1cc2cccc(Cn3cc(CO)cn3)c2cn1 [Example 292, 1-ethyl-3-[8-(4-hydroxymethyl-pyrazol-1-ylmethyl)-isoquinolin-3-yl]-urea] | 8 (≈ 24.6 µM) | 
CCNC(=O)Nc1cc2c(-c3cccc(NC(C)=O)c3)ccc(C)c2cn1 [Example 4, N-{3-[3-(3-ethyl-ureido)-8-methyl-isoquinolin-5-yl]-phenyl}-acetamide] | 8 (≈ 22.1 µM) | 
CCNC(=O)Nc1cc2cc(-c3cncc(F)c3)cc(C)c2cn1 [Example 102, 1-ethyl-3-[6-(5-fluoro-pyridin-3-yl)-8-methyl-isoquinolin-3-yl]-urea] | 2 (≈ 6.17 µM) | 
CCNC(=O)Nc1cc2cc(-c3ccccc3C(=O)OCC)cc(C)c2cn1 [Example 85, 2-[3-(3-ethyl-ureido)-8-methyl-isoquinolin-6-yl]-benzoic acid ethyl ester] | 16 (≈ 42.4 µM) | 
CCNC(=O)Nc1cc2cc(-c3ccc(CO)nc3)cc(C)c2cn1 [Example 101, 1-ethyl-3-[6-(6-hydroxymethyl-pyridin-3-yl)-8-methyl-isoquinolin-3-yl]-urea] | 1 (≈ 2.97 µM) | 
CCNC(=O)Nc1cc2c(-c3ccnc(F)c3)ccc(C)c2cn1 [Example 41, 1-ethyl-3-[5-(2-fluoro-pyridin-4-yl)-8-methyl-isoquinolin-3-yl]-urea] | 2 (≈ 6.17 µM) | 
CCNC(=O)Nc1cc2cc(NCc3cccc(C(=O)O)c3)cc(C)c2cn1.Cl [Example 128, 3-{[3-(3-ethyl-ureido)-8-methyl-isoquinolin-6-ylamino]-methyl}-benzoic acid hydrochloride] | 8 | 
CCNC(=O)Nc1cc2c(F)ccc(C)c2cn1 [Example 60, 1-ethyl-3-(5-fluoro-8-methyl-isoquinolin-3-yl)-urea] | 4 (≈ 16.2 µM) | 
CCNC(=O)Nc1cc2c(CNC)ccc(Nc3cccc(C(=O)O)c3)c2cn1 [Example 272, 3-{[3-(3-ethyl-ureido)-5-[(methylamino)methyl]-isoquinolin-8-yl]amino}-benzoic acid] | 8 (≈ 20.3 µM) | 
CCNC(=O)Nc1cc2c(F)ccc(Br)c2cn1 [Example 32, 1-(8-bromo-5-fluoro-isoquinolin-3-yl)-3-ethyl-urea] | 16 (≈ 51.3 µM) | 
CCNC(=O)Nc1cc2cc(NC(=O)c3ccc(OC)cc3)cc(C)c2cn1 [Example 120, N-[3-(3-ethyl-ureido)-8-methyl-isoquinolin-6-yl]-4-methoxy-benzamide] | 0.125 (≈ 0.33 µM) | 
CCNC(=O)Nc1cc2cc(-c3cccc(C(C)=O)c3)cc(C)c2cn1 [Example 29, 1-[6-(3-acetyl-phenyl)-8-methyl-isoquinolin-3-yl]-3-ethyl-urea] | 0.5 (≈ 1.44 µM) | 

— patent publication US20130096119A1, “Isoquinolin-3-Ylurea Derivatives” (priority 2010, published 2013)
